In patent US20200246365A1, “COMPOUNDS, PHARMACEUTICAL COMPOSITIONS AND USE THEREOF AS INHIBITORS OF RAN GTPASE” (THE ROYAL INSTITUTION FOR THE ADVANCEMENT OF LEARNING / …, priority 2017, published 2020):

Assays:
TOV112D cells [1] = test: Clonogenic survival assay, TOV112D; format: cell-based, human; conditions: for IC50: Homo sapiens, read-out: IC50 value for the TOV112D cell line by clonogenic assay; for IC50 / IC50 value for the TOV112D cell line by clonogenic assay: TOV112D
Protocol: (§1) The human EOC cell lines used (TOV81D, TOV112D, OV90, TOV21G, OV866(2), TOV1369(R), OV1369(R2), TOV1946, OV1946, TOV2295(R), OV4485) were derived in our laboratory from patients' tumors (TOV) or ascites (OV). All EOC cell lines were maintained in a low oxygen condition of 7% O2 and 5% CO2 and grown in OSE medium (Wisent, Montreal, QC) supplemented with 10% FBS (Wisent), 0.5 μg/mL amphotericin B (Wisent) and 50 μg/mL gentamicin (Life Technologies Inc., Burlington, ON). The human retinal epithelial cell line ARPE-19 was purchased from American Type Culture Collection (ATCC, Manassas, Va.) and maintained in DMEM-F12 (Wisent) supplemented with 10% FBS (Wisent), 0.5 μg/mL amphotericin B (Wisent) and 50 μg/mL gentamicin (Life Technologies Inc.).
(§2) Clonogenic assays were performed as previously described. Colonies were counted under a stereo microscope and reported as percent of control. IC50 values were determined using Graph Pad Prism 5 software (GraphPad Software Inc., San Diego, Calif.). Each experiment was performed in duplicate and repeated three times. Sensitivity of the cell lines to small molecules inhibitors of Ran was assessed using a concentration range of 0-50 μM.
(§3) Small molecules inhibitors of Ran were dissolved in 100% dimethyl sulfoxide (DMSO) and then further diluted in complete culture media for in vitro experiments. Drugs were added 24 hours after seeding.

TOV112D cells [2] = test: IncuCyte cell proliferation assay, TOV112D; format: cell-based, human; conditions: for cell growth of TOV112D (new M36 analogs screen): 40 μM
Protocol: as §1
(§4) Cells (2,000 cells/well) were plated in a 96-well plate. The next day, compounds were added at the indicated concentrations. Following treatment, cell confluence was imaged by phase contrast using the IncuCyte live cell monitoring system (Essen BioScience, Ann Arbor, Mich.). Frames were captured at 2-hour intervals using a 10× objective. For Ran knock down experiments, cells were seeded in a 96-well plate (4,000 cells/well) directly after transfection. Cell confluence monitoring started the next day as described above.
as §3

ARPE-19 cells [3] = test: Clonogenic survival assay, ARPE-19; format: cell-based, human; conditions: for effect on normal ARPE-19 cell line in detailed clonogenic assay: different concentrations
Protocol: as §1, §2, §3

[4] = tested on: other aneuploid EOC cells; test: IncuCyte cell proliferation assay, other aneuploid EOC cell lines; format: cell-based, human; conditions: 80 μM
Protocol: as §1, §4, §3

Ran-GTP [5] = biological target: T1, Ran-GTP (Homo sapiens, UniProt P62826); test: Ran activation (Ran-GTP pull-down) assay in TOV112D cells; format: cell-based; conditions: 1 hour treatment, vs DMSO
Protocol: Cells were seeded onto 6-well tissue culture plates in such a way that cell confluence reaches approximately 70% the day of experiment. The day of experiment cells were treated for 1 hour with the indicated compounds prior to protein extraction and quantification. Assays were performed using the Ran activation assay kit (Cell Biolabs). Briefly, 400 μg of lysates were incubated for one hour at 4° C. with agarose beads conjugated to RANBP1, which specifically binds Ran-GTP. Beads were pelleted, washed, and re-suspended in SDS-PAGE buffer, followed by immunoblotting with an anti-Ran antibody.

ARPE-19 cells [6] = test: IncuCyte cell proliferation assay, ARPE-19; format: cell-based, human; conditions: for cell growth of ARPE-19 (new M36 analogs screen): 40 μM; for effect on normal ARPE-19 cells at low concentrations: 0.5 to 2.5 μM
Protocol: as §1, §4, §3

[7] = biological target: T2, recombinant human Ran protein (Homo sapiens, UniProt P62826); test: Surface Plasmon Resonance (SPR) binding to immobilized Ran
T2 construct: Recombinant Ran protein was purchased from Sigma-Aldrich Inc. (R3152)
Protocol: SPR experiments were carried out using the Biacore 3000 system. Recombinant Ran protein was purchased from Sigma-Aldrich Inc. (R3152). The running buffer contained PBS, pH7.4, 1 mM GDP, 2 mM MgCl2 and 0.2% DMSO. The regeneration buffer contained 10 mM glycine (pH 2.5). Ran-GDP protein was immobilized onto a CM5 chip; samples of compounds in running buffer were injected at 30 μL/min for 10 minutes contact time followed by 5 minutes regeneration. Kd was calculated using the GraphPad Prism 5 software.

Ran-GTP [8] = biological target: T1, Ran-GTP; test: Ran-GTP immunofluorescence in TOV112D cells; format: cell-based; conditions: TOV112D cells vs DMSO-treated
Protocol: M36 and R28-treated and control TOV112D cells grown on coverslips were washed with 1×PBS, fixed in 4% paraformaldehyde and permeabilized with 0.25% Triton X-100 (Sigma-Aldrich Inc.). After blocking (4% BSA and 4% FBS in PBS), coverslips were incubated with the monoclonal anti-RanGTP antibody (26915, NewEastBioscences) diluted 1:100 in blocking buffer for 2 hours at room temperature. Subsequently, samples were incubated with Cy-5 secondary antibody (1:500, Life Technologies Inc.) for 1 hour and coverslips were mounted onto slides using Prolong® Gold anti-fade reagent with DAPI (Life Technologies Inc.). Samples were visualized under a Zeiss microscope (Zeiss observer Z1) with a 20× objective.

[9] = tested on: prostate cancer cell lines (LNCaP, 22RV1, PC3, DU145); test: Cell proliferation, prostate cancer cell lines; format: cell-based
[10] = tested on: breast cancer cell lines (MDA231, MDA468, HCC1806, ZR75, T47D, BT474, HCC1954); test: Cell proliferation, breast cancer cell lines; format: cell-based
[11] = Pharmacokinetics in CD1 mice; format: in vivo; conditions: 50 mg/kg
Protocol: For the pharmacokinetic studies, 6-week-old female CD1 mice (Charles River laboratories, Senneville, QC, Canada) received a single intravenous or intraperitoneal injection of M36 or QR20 (50 mg/kg), dissolved in DMSO 10%, Kolliphor® EL 10%, PEG-400 20% and PBS 60% (QR20 was also dissolved in DMSO 10%, PBS 90%). For each time point (15 minutes, 30 minutes, […], 1 hour, 2 hours and 6 hours), 3 mice were sacrificed and blood was collected by cardiac puncture. Thereafter, the plasma level of each compound was measured by mass spectrometry.

[12] = Tolerance test in NRG mice; format: in vivo; conditions: daily i.p. 75 mg/kg for 15 days
Protocol: For the tolerance test, M36 and QR20 compounds were dissolved in DMSO 10%, Kolliphor® EL 10%, PEG-400 20% and PBS 60% and injected intraperitoneally into 6-week-old female Nod Rag Gamma (NRG) mice (The Jackson laboratory, Bar Harbor, Me.) daily at 75 mg/kg. During this study, mice (n=3) were monitored for survival and weight loss/gain.

cleaved PARP = test: Apoptosis by PARP cleavage (Western blot); format: cell-based, human; conditions: 96 hours after treatment
Protocol: Cells were lysed with RIPA buffer containing protease inhibitors. Whole cell lysates were run through a Bradford assay (Thermo Fisher Scientific) for protein quantification. Around 25-50 μg of proteins were separated onto 12.5% SDS-PAGE and transferred onto nitrocellulose membranes. The resultant blots were probed with Ran (1:10000, sc-271376 Santa Cruz Biotechnology, Dallas, Tex.), cleaved PARP (1:1000, #9541, Cell Signaling Technology Inc., Danvers, Mass.), GAPDH (1:2500, #2118, Cell Signaling Technology Inc.) or beta-actin (1:50000, ab6276, Abcam Inc., Toronto, ON, Canada) primary antibodies overnight at 4° C. then with peroxidase-conjugated secondary antibodies for 2 hours at room temperature. Proteins were detected using enhanced chemiluminescence (Thermo Fisher Scientific).

SMILES: COc1ccc(CN(C)Cc2cc(CN(C)Cc3ccc(OC)cc3)cc(CN(C)Cc3ccc(OC)cc3)c2)cc1 [M55]
- IC50 (TOV112D cells [1]): 4.16 µM
- cell growth of TOV112D (new M36 analogs screen) (TOV112D cells [2]; day 4): discriminative effect between normal ARPE-19 and aneuploid TOV112D cells
- cell growth of TOV112D, detailed proliferation assay (TOV112D cells [2]; 5, 10, 20 μM): specifically inhibit cell growth of the TOV112D cells even at a low concentration of 5 μM

SMILES: c1ccc(CN2CCN(C(c3ccccc3)C3CCCCC3)CC2)cc1 (stereo not shown) [R20]
- IC50 (TOV112D cells [1]): 9.91 ± 0.36 µM
- effect on normal ARPE-19 cell line in detailed clonogenic assay (ARPE-19 cells [3]): no effect
- cell proliferation of TOV112D (1292 analogs screen) (TOV112D cells [2]; 80 μM, vs normal ARPE-19): greater efficacy in inhibiting cell proliferation
- cell proliferation of other aneuploid EOC cells [4]: inhibited cell proliferation
- active Ran-GTP levels (pull-down) (Ran-GTP [5]): concentration-dependent decrease in Ran-GTP levels

SMILES: Fc1ccc(CNCc2cc(CNCc3ccc(F)cc3)cc(CNCc3ccc(F)cc3)c2)cc1 [M48]
- IC50 value for the TOV112D cell line by clonogenic assay (TOV112D cells [1]): low IC50 values
- cell growth of TOV112D (new M36 analogs screen) (TOV112D cells [2]; day 4): completely inhibited cell growth
- cell growth of ARPE-19 (new M36 analogs screen) (ARPE-19 cells [6]; day 4): completely inhibited cell growth
- effect on normal ARPE-19 cells at low concentrations (ARPE-19 cells [6]): also affected normal ARPE-19 cells

SMILES: NC(=S)[C@@H]1C[C@H](COC(=O)c2ccccc2)[C@@H](OC(=O)c2ccccc2)[C@H]1OC(=O)c1ccccc1 [M26]
- binding to the immobilized Ran protein ([7]; different compound concentrations, reached saturation): concentration-dependent binding
- colony formation of TOV112D cells (TOV112D cells [1]; single dose 10 μM): specifically inhibited colony formation of EOC
- colony formation of ARPE-19 cells (ARPE-19 cells [3]; single dose 10 μM): not normal cells
- active Ran-GTP levels (pull-down) (Ran-GTP [5]): marked decrease in Ran-GTP levels

SMILES: COc1ccc(CN2CCN(Cc3ccc(OC)c(N(C(=O)Nc4cccc(F)c4)C(=O)Nc4cccc(F)c4)c3)CC2)cc1 [R28]
- IC50 (TOV112D cells [1]): 2.99 ± 0.19 µM
- proliferation of TOV112D cells (R20 analogs screen) (TOV112D cells [2]; 20, 40 and 80 μM, day 4): more efficient than compound R20 to inhibit proliferation of TOV112D cells
- proliferation of ARPE-19 cells (R20 analogs screen) (ARPE-19 cells [6]; 20, 40 and 80 μM, day 4): without affecting normal ARPE-19 cells
- Ran-GTP levels by immunofluorescence (Ran-GTP [8]): very low levels of active Ran-GTP
- effect on prostate cancer cell lines [9]: effective in both cancer types
- effect on breast cancer cell lines [10]: effective in both cancer types

SMILES: c1ccc(CNCc2cc(CNCc3ccccc3)cc(CNCc3ccccc3)c2)cc1 [M51]
- IC50 (TOV112D cells [1]): ~0.66 µM
- cell growth of TOV112D (new M36 analogs screen) (TOV112D cells [2]; day 4): completely inhibited cell growth
- TOV112D cell growth at low concentrations (TOV112D cells [2]; 0.5, 1, 2.5 μM): inhibited TOV112D cell growth
- cell growth of ARPE-19 (new M36 analogs screen) (ARPE-19 cells [6]; day 4): completely inhibited cell growth
- effect on normal ARPE-19 cells at low concentrations (ARPE-19 cells [6]): did not affect normal cells
- effect on breast cancer cell lines [10]: effective in one triple negative breast cancer cell line

SMILES: NC(=S)[C@H]1O[C@H](COCc2ccccc2F)[C@@H](OCc2ccccc2F)[C@H]1OCc1ccccc1F [M46]
- IC50 (TOV112D cells [1]): 12.5 ± 0.36 µM
- active Ran-GTP levels (pull-down) (Ran-GTP [5]): weaker than that of M36

SMILES: COc1ccc(CNCc2cc(CNCc3ccc(OC)cc3)cc(CNCc3ccc(OC)cc3)c2)cc1 [M52]
- IC50 value for the TOV112D cell line by clonogenic assay (TOV112D cells [1]): low IC50 values
- cell growth of TOV112D (new M36 analogs screen) (TOV112D cells [2]; day 4): completely inhibited cell growth
- cell growth of ARPE-19 (new M36 analogs screen) (ARPE-19 cells [6]; day 4): completely inhibited cell growth
- effect on normal ARPE-19 cells at low concentrations (ARPE-19 cells [6]): also affected normal ARPE-19 cells

SMILES: c1ccc(CN2CCN(C(c3ccccc3)C3CCCCC3)CC2)cc1 (stereo not shown) [QR20]
- TOV112D cell proliferation, R20 salts (TOV112D cells [2]; 20, 40, 80 μM): exactly the same activity to inhibit TOV112D cell proliferation
- ARPE-19 cell proliferation, R20 salts (ARPE-19 cells [6]; 20, 40, 80 μM): without affecting the normal ARPE-19 cells
- pharmacokinetics profile based on AUC values [11]: good pharmacokinetics profiles
- tolerance [12]: well tolerated
- weight loss [12]: no weight loss

SMILES: COc1ccc(CN2CCN(Cc3ccc(OC)cc3)CC2)cc1 [compound 1292]
- IC50 (TOV112D cells [1]): 15 ± 0.37 µM
- effect on normal ARPE-19 cell line in detailed clonogenic assay (ARPE-19 cells [3]): did not have any effect
- cell proliferation of other aneuploid EOC cells [4]: inhibited cell proliferation
- active Ran-GTP levels (pull-down) (Ran-GTP [5]): concentration-dependent decrease in Ran-GTP levels
- apoptosis (cleaved PARP on Western blot) (cleaved PARP): induction of apoptosis

SMILES: Oc1ccc(CCCCCCc2ccc(O)cc2)cc1 [V188]
- Kd ([7]; Ran-GDP immobilized on CM5 chip): 0.38 µM
- IC50 (TOV112D cells [1]): 7.6 ± 0.32 µM
